# Measured values reported in the RepoRT retention time repository (doi:10.1016/j.jhazmat.2019.121712).
# Assay: Thermo Scientific Acclaim RSLC 120 C18, 100 × 2.1 mm, 2.2 µm, 30 °C; A: 90% water + 10% methanol + 0.01% formic acid + 5 mM ammonium formate; B: methanol + 0.01% formic acid + 5 mM ammonium formate; gradient (min/%B) 0.1/1 3/39 14/99.9 16/99.9
# Conditions: stereoisomer not certain
row,SMILES,LC retention time
1,CCOc1ccc(C(C)(C)COCc2cccc(Oc3ccccc3)c2)cc1,14.1 min
2,COc1ccc2c3c1OC1C(O)CCC4C(C2)N(C)CCC341 (stereo not drawn),3.36 min
3,CC(C)N1C(=O)c2ccccc2NS1(=O)=O,5.22 min
4,CC1C=CC=CCCC=CC=CC=CC=CC(OC2OC(C)C(O)C(N)C2O)CC2OC(O)(CC(O)C(O)CCC(O)CC(O)CC(O)CC(=O)OC(C)C(C)C1O)CC(O)C2C(=O)O (stereo not drawn),10.3 min
5,C=CCN1CCC23c4c5ccc(O)c4OC2C(=O)CCC3(O)C1C5 (stereo not drawn),3.44 min
6,CCC(C)Nc1c([N+](=O)[O-])cc(C(C)(C)C)cc1[N+](=O)[O-] (stereo not drawn),13 min
7,NCC1(CC(=O)O)CCCCC1,3.78 min
8,CN1CCCCC1Cn1cc(C(=O)C23CC4CC(CC(C4)C2)C3)c2ccccc21 (stereo not drawn),9.94 min
9,CCC1(C2OC(C3OC(O)(CO)C(C)CC3C)CC2C)CCC(C2(C)CCC3(CC(O)C(C)C(C(C)C(OC)C(C)C(=O)O)O3)O2)O1 (stereo not drawn),13.8 min
10,CC1(C)C(C(=O)OC(C#N)c2cccc(Oc3ccccc3)c2)C1(C)C (stereo not drawn),12.9 min
11,CCOP(=S)(Oc1cnc(C(C)(C)C)nc1)OC(C)C (stereo not drawn),12.3 min
12,O=C1N(CCN2CCCCC2)C(=O)C(c2ccccc2)(N2CCCCC2)C(=O)N1CCN1CCCCC1,7.64 min
13,CN(C)c1ccc(N=Nc2ccccc2)cc1,12.4 min
14,OC(c1ccccc1)(c1ccccc1)C1CCNCC1,6.19 min
15,CC(O)CCn1cc(C(=O)c2cccc3ccccc23)c2ccccc21 (stereo not drawn),9.91 min
16,CC(N)Cc1ccc2occc2c1 (stereo not drawn),4.79 min
17,CNC(=N[N+](=O)[O-])NCC1CCOC1 (stereo not drawn),3.59 min
18,COC(=O)c1ccccc1S(=O)(=O)NC(=O)Nc1nc(C)cc(C)n1,6.92 min
19,NCCc1ccc(O)cc1,2.28 min
20,COc1cccc(C(=O)NN(C(=O)c2cc(C)cc(C)c2)C(C)(C)C)c1C,9.56 min
21,CN1CCC23c4c5ccc(O)c4OC2CCCC3C1C5 (stereo not drawn),3.84 min
22,COc1ccc2c3c1OC1C(OC4OC(C(=O)O)C(O)C(O)C4O)C=CC4C(C2)NCCC341 (stereo not drawn),2.48 min
23,CCCCCc1cc(O)c2c(c1)OC(C)(C)C1CCC(C)=CC21 (stereo not drawn),14 min
24,O=c1[nH]c2c(c(=O)n1C1CCCCC1)CCC2,8.27 min
25,O=c1ccc2cc(OC3OC(CO)C(O)C(O)C3O)c(O)cc2o1 (stereo not drawn),3.69 min
26,CC1NCCOC1c1ccccc1 (stereo not drawn),4.14 min

row,SMILES,LC retention time
1,COc1cc(SC(C)C)c(OC)cc1CCN,6.69 min
2,CNC(C)Cc1cccs1 (stereo not drawn),3.69 min
3,CNC(=O)ON=C(C)C(C)S(C)=O (stereo not drawn),3.35 min
4,COC1=CC(=O)OC(C=Cc2ccccc2)C1 (stereo not drawn),8.32 min
5,CN1CCC23c4c5ccc(O)c4OC2C(O)C=CC3C1C5 (stereo not drawn),2.54 min
6,CNC(C)C(=O)c1ccc2c(c1)OCO2 (stereo not drawn),3.81 min
7,Cc1ccc(NC(=O)NC(C)(C)c2ccccc2)cc1,9.68 min
8,CN1CCCCC1Cn1cc(C(=O)c2cccc3ccccc23)c2ccccc21 (stereo not drawn),8.09 min
9,CCOC(=O)CC(SP(=S)(OC)OC)C(=O)OCC (stereo not drawn),9.59 min
10,O=C(Oc1ccccc1)c1ccccc1C(=O)Oc1ccccc1,11.2 min
11,CC12CCC3C(CCC4=CC(=O)CCC43C)C1CCC2=O (stereo not drawn),9.36 min
12,COC(C)(C)CCCC(C)CC=CC(C)=CC(=O)OC(C)C (stereo not drawn),13.6 min
13,CC(C)=CCN1CCC2(C)c3cc(O)ccc3CC1C2C (stereo not drawn),5.46 min
14,CCCCn1cc(C(=O)c2cccc3ccccc23)c2ccccc21,11.9 min
15,CCCCCn1cc(C(=O)Cc2cccc(OC)c2)c2ccccc21,11.6 min
16,CCS(=O)(=O)c1cccnc1S(=O)(=O)NC(=O)Nc1nc(OC)cc(OC)n1,7.09 min
17,COC(=O)Nc1nc2ccccc2[nH]1,5.46 min
18,CCCCCn1cc(C(=O)NCc2ccccc2)c2ccccc21,11.2 min
19,CN1CCC(N(Cc2ccccc2)c2ccccc2)CC1,7.77 min
20,CC(C)C(O)(C(=O)OCC1=CCN2CCC(O)C12)C(C)O (stereo not drawn),3.65 min
21,CCCOP(=S)(OCCC)OP(=S)(OCCC)OCCC,12.9 min
22,CCNC1C2CCC(C2)C1c1ccccc1 (stereo not drawn),6.08 min
23,C=C1CC(=CC)C(=O)OC2CCN3CC=C(COC(=O)C1(C)O)C23 (stereo not drawn),4.17 min
24,CC12CCC(=O)C=C1CCC1C2CCC2(C)C1CCC2(C)O (stereo not drawn),10.4 min
25,NC1Cc2cc3c(cc2C1)OCO3,3.81 min

# Next, values leading:
row,LC retention time,SMILES
1,3.98 min,NCCCCC(NC(CCc1ccccc1)C(=O)O)C(=O)N1CCCC1C(=O)O (stereo not drawn)
2,1.93 min,CCC(CO)NCCNC(CC)CO (stereo not drawn)
3,7.85 min,CC12C=CC(=O)C=C1CCC1C2C(=O)CC2(C)C1CCC2(O)C(=O)CO (stereo not drawn)
4,15.1 min,CC1CCC2(OC1)OC1CC3C4CC=C5CC(O)CCC5(C)C4CCC3(C)C1C2C (stereo not drawn)
5,6.61 min,O=C(O)c1cc(N=Nc2ccc(S(=O)(=O)Nc3ccccn3)cc2)ccc1O
6,6.13 min,CC=CC(=O)N(CC)C(CC)C(=O)N(C)C (stereo not drawn)
7,5.28 min,CCCCN(CCCC)CCCC
8,5.89 min,CC(C)(C)c1n[nH]c(=O)n(N)c1=O
9,4.78 min,CCCC(=O)Nc1ccc(OCC(O)CNC(C)C)c(C(C)=O)c1 (stereo not drawn)
10,1.63 min,Nc1ccc(O)c(C(=O)O)c1
11,7.84 min,NN1CC(=O)N2C(Cc3c([nH]c4ccccc34)C2c2ccc3c(c2)OCO3)C1=O (stereo not drawn)
12,6.78 min,CCCc1nn(C)c2c(=O)[nH]c(-c3cc(C(=O)N4CCN(CC)CC4)ccc3OCC)nc12
13,4.49 min,O=C1N=CCC=N1
14,4.66 min,CC(C)(C)NCC(O)COc1ccccc1C#N (stereo not drawn)
15,4.76 min,c1ccc2n[nH]nc2c1
16,5.21 min,Cc1c(N(C)C)c(=O)n(-c2ccccc2)n1C
17,5.08 min,COC(=O)C1C(O)CCC2CN3CCc4c([nH]c5ccccc45)C3CC21 (stereo not drawn)
18,5.24 min,CCCN1CC(NS(=O)(=O)N(CC)CC)CC2Cc3c(O)cccc3CC21 (stereo not drawn)
19,4.4 min,C1COC(NC(C2CC2)C2CC2)=N1

row,LC retention time,SMILES
1,7.25 min,CCC1OC(=O)C(C)C(=O)C(C)C(OC2OC(C)CC(N(C)C)C2O)C(C)(OC)CC(C)C(=O)C(C)C2N(CCCCn3cnc(-c4cccnc4)c3)C(=O)OC12C (stereo not drawn)
2,9.21 min,CCCCC(=O)N(Cc1ccc(-c2ccccc2-c2nn[nH]n2)cc1)C(C(=O)O)C(C)C (stereo not drawn)
3,4.75 min,COc1cc(NS(=O)(=O)c2ccc(N)cc2)ncn1
4,5.96 min,CC(CC(C#N)(c1ccccc1)C(C)C)N(C)C (stereo not drawn)
5,3.11 min,CC(C)(C)NCC(O)c1cc(O)cc(O)c1 (stereo not drawn)
6,5.13 min,CC(C)N(C(=O)C(=O)O)c1ccccc1
7,7.37 min,Cc1onc(-c2ccccc2)c1-c1ccc(S(N)(=O)=O)cc1
8,10.1 min,CCOc1ccc2c(c1)C(C)=CC(C)(C)N2
9,4.19 min,O=C1OCCN1N=Cc1ccc([N+](=O)[O-])o1
10,4.59 min,CCN(CC)CC(=O)Nc1c(C)cccc1C(=O)OC
11,8.08 min,CN(C)CCCN1c2ccccc2CCc2ccccc21
12,9.32 min,O=C(C1CCCCC1)N1CC(=O)N2CCc3ccccc3C2C1 (stereo not drawn)
13,3.79 min,CC(NCCc1ccc(O)cc1)C(O)c1ccc(O)cc1 (stereo not drawn)
14,5.99 min,O=c1cn[nH][nH]1
15,11.6 min,CNC(C)C1CCC(N)C(OC2C(N)CC(N)C(OC3OCC(C)(O)C(NC)C3O)C2O)O1 (stereo not drawn)
16,5.18 min,CN(C)CCOC(C)(c1ccccc1)c1ccccn1 (stereo not drawn)
17,9.79 min,Cc1ccc(S(=O)(=O)NC(=O)NC2C3CCC(C)(C2O)C3(C)C)cc1 (stereo not drawn)
18,4.64 min,CCN(CC)C(=O)c1cccnc1
19,7.06 min,O=C1OC(c2ccc(O)cc2)(c2ccc(O)cc2)c2ccccc21

row,LC retention time,SMILES
1,8.31 min,COC(=O)C1=C(C)NC(C)=C(C(=O)OC)C1c1ccccc1[N+](=O)[O-]
2,4.88 min,CC1(C)CC1C(=O)NC(=CCCCCSCC(N)C(=O)O)C(=O)O (stereo not drawn)
3,4.86 min,COc1cc(C(=O)NCc2ccc(OCCN(C)C)cc2)cc(OC)c1OC
4,9.19 min,CCCSc1ccc2nc(NC(=O)OC)[nH]c2c1
5,11.2 min,COC1C(OC(N)=O)C(O)C(Oc2ccc3c(O)c(NC(=O)c4ccc(O)c(CC=C(C)C)c4)c(=O)oc3c2C)OC1(C)C (stereo not drawn)
6,5.44 min,CON=C(C(=O)NC1C(=O)N2C(C(=O)O)=C(CSC(=O)c3ccco3)CSC12)c1csc(N)n1 (stereo not drawn)
7,5.6 min,COc1cc(NS(=O)(=O)c2ccc(N)cc2)nc(OC)n1
8,2.19 min,O=c1[nH]cnc2[nH]ncc12
9,8.47 min,COC(=O)C1C2CC3c4[nH]c5cc(OC)ccc5c4CCN3CC2CC(OC(=O)c2cc(OC)c(OC)c(OC)c2)C1OC (stereo not drawn)
10,5.76 min,COc1cc2[nH]c(C)c(CCN3CCN(c4ccccc4)CC3)c2cc1OC
11,5.01 min,CCCCCC(C)N (stereo not drawn)
12,4.21 min,CC1(C)SC2C(NC(=O)C(N)c3ccccc3)C(=O)N2C1C(=O)O (stereo not drawn)
13,3.43 min,CC(=O)Nc1nnc(S(N)(=O)=O)s1
14,1.26 min,CNC1C(OC2C(OC3C(O)C(O)C(N=C(N)N)C(O)C3N=C(N)N)OC(C)C2(O)CO)OC(CO)C(O)C1O (stereo not drawn)
15,4.57 min,NC(N)=NCC1COc2ccccc2O1 (stereo not drawn)
16,5.66 min,O=C(O)c1cc(N=Nc2ccc(O)c(C(=O)O)c2)ccc1O
17,9.44 min,CCCCCCn1c(=O)c2c(ncn2C)n(C)c1=O
18,10.7 min,CNC(=O)C(=NOC)c1ccccc1COc1cc(C)ccc1C
19,7.08 min,O=C1NC(=O)C(c2ccccc2)(c2ccccc2)N1
